According to article PMC13104650 (Acta Pharmaceutica Sinica. B, 2025):

Biological target: T1, TXNRD1 (cytosolic thioredoxin reductase 1) (Rattus norvegicus, UniProt O89049)
T1 sequence (O89049 1-499): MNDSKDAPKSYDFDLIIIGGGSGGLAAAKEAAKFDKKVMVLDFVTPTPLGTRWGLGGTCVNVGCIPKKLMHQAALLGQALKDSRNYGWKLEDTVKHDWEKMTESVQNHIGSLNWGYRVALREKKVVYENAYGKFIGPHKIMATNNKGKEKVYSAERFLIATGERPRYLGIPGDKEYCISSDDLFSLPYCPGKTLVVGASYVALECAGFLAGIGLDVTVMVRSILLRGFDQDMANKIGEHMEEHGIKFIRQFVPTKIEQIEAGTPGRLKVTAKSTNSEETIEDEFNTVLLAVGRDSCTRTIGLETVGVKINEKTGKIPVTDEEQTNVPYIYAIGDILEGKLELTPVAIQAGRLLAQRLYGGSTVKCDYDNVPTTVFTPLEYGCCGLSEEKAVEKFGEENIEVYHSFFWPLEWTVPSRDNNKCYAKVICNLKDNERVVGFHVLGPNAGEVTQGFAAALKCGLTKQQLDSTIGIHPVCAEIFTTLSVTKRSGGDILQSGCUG
Assay: ITC
Assay type: binding

Kd: 83.9 nM
SMILES: C=C1C(=O)O[C@@H]2C[C@@]3(C)CCCC(=C)[C@@H]3C[C@H]12 [IAL, Isoalantolactone]
